Measurements reported in patent publication US7803930B2, “Antisense modulation of apolipoprotein B-expression” (Isis Pharmaceuticals, Inc., priority 2002, dated 2010).
In the oligonucleotide strings, read from the 5' end, every base follows the letter of its sugar. An asterisk marks phosphorothioate; unmarked linkages are phosphodiester. Other units and linkages are bracketed, terminal groups are in braces. A string of capitals states the bases alone. e = 2'-O-(2-methoxyethyl) (MOE); [5mC] = 5-methylcytosine; d = 2'-deoxy (DNA)

Experiments:
[1] = system: human apolipoprotein B mRNA; experiment: Inhibition of human apolipoprotein B mRNA levels in HepG2 cells, quantitative real-time PCR; format: cell-based; conditions: for % inhibition of apolipoprotein B mRNA levels / % inhibition 37 nM / % inhibition 75 nM / % inhibition 150 nM / % inhibition 300 nM: normalized to untreated control; for % inhibition of apolipoprotein B mRNA levels: average of two experiments; for % inhibition 37 nM / % inhibition 75 nM / % inhibition 150 nM / % inhibition 300 nM: Table 19 dose response; for % INHIB (inhibition of human apolipoprotein B mRNA levels): HepG2 cells treated with 150 nM of compound, quantitative real-time PCR
Procedure, shortened: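 HepG2 cells at 80% confluency were transfected with antisense oligonucleotide using 3.75 μg/mL Lipofectin in Opti-MEM for 4-7 h and harvested 16-24 h after treatment. Apolipoprotein B mRNA was measured by real-time RT-PCR and normalized to GAPDH or RiboGreen total RNA. Percent inhibition came from untreated-control standard curves.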

[2] = system: endogenous mouse apolipoprotein B; experiment: C57BL/6NTac-TgN(APOB100) transgenic mice, 8 weeks (Example 47): endogenous mouse apolipoprotein B mRNA in liver; format: in vivo; conditions: C57BL/6NTac-TgN(APOB100) mice, 25 mg/kg i.p. twice a week, eight weeks; for mRNA % control, mouse mRNA: liver; for levels of the endogenous mouse apolipoprotein B in liver: specificity
Experimental: (§1) C57BL/6NTac-TgN(APOB100) mice were divided into two groups—one group receiving oligonucleotide treatment and control animals receiving saline treatment. After overnight fasting, mice were dosed intraperitoneally twice a week with saline or 25 mg/kg ISIS 281625 (SEQ ID No: 224) or ISIS 301012 (SEQ ID No: 247) for eight weeks. At study termination and forty eight hours after the final injections, animals were sacrificed and evaluated for target mRNA levels in liver, cholesterol and triglyceride levels, and liver enzyme levels. In addition, the endogenous mouse apolipoprotein B levels in liver were measured to evaluate any effects of these antisense oligonucletides targeted to the human apolipoprotein B.

[3] = system: human apolipoprotein B mRNA; experiment: C57BL/6NTac-TgN(APOB100) transgenic mice, 8 weeks (Example 47): human apolipoprotein B mRNA in liver; format: in vivo, human transgene in mouse; conditions: C57BL/6NTac-TgN(APOB100) mice, 25 mg/kg i.p. twice a week, eight weeks; for mRNA % control, human mRNA: liver
Experimental: as §1

[4] = Toxicity in C57BL/6 mice, two weeks (Example 48): liver enzyme levels, body, liver and spleen weight; format: in vivo, mouse; set-up: Weight BODY / Weight LIVER / Weight SPLEEN: unit not given here; conditions: 25 mg/kg i.p. twice a week
Experimental: C57BL/6 mice were divided into two groups—one group receiving oligonucleotide treatment and control animals receiving saline treatment. After overnight fasting, mice were dosed intraperitoneally twice a week with saline or 25 mg/kg of one of several oligonucleotides for two weeks. The antisense oligonucleotides used in the present study were ISIS 233172 (SEQ ID NO: 835) and ISIS 233175 (SEQ ID NO: 838), both targeted to rabbit apolipoprotein B, and ISIS 281625 (SEQ ID NO: 224), ISIS 301012 (SEQ ID NO: 247), and ISIS 301027 (SEQ ID NO: 262), targeted to human apolipoprotein B. At study termination and forty eight hours after the final injections, animals were sacrificed and evaluated for liver enzyme levels, body weight, liver weight, and spleen weight.

[5] = HepG2 cells, 12.5 nM oligonucleotide
[6] = HepG2 cells, 37 nM oligonucleotide
[7] = HepG2 cells, 75 nM oligonucleotide
[8] = HepG2 cells, 150 nM oligonucleotide
[9] = HepG2 cells, 300 nM oligonucleotide

Row | Substance | % inhibition of apolipoprotein B mRNA levels [1, 5] [%] | % inhibition of apolipoprotein B mRNA levels [1, 6] [%] | % inhibition of apolipoprotein B mRNA levels [1, 7] [%] | % inhibition of apolipoprotein B mRNA levels [1, 8] [%] | % inhibition of apolipoprotein B mRNA levels [1, 9] [%] | % inhibition 37 nM ([1]; HepG2 cells) [%] | % inhibition 75 nM ([1]; HepG2 cells) [%] | % inhibition 150 nM ([1]; HepG2 cells, 150 nM) [%] | % inhibition 300 nM ([1]; HepG2 cells) [%] | Liver Enzymes ALT [4] [IU/L] | Liver Enzymes AST [4] [IU/L] | Weight BODY [4] | Weight LIVER [4] | Weight SPLEEN [4] | % INHIB (inhibition of human apolipoprotein B mRNA levels) ([1]; averages from two experiments) [%] | other results
1 | 271009 (antisense eG*e[5mC]*e[5mC]*eT*e[5mC]*dA*dG*dT*d[5mC]*dT*dG*d[5mC]*dT*dT*d[5mC]*eG*e[5mC]*eG*e[5mC]*e[5mC]) [compound 271009] | 67 | 86 | 92 | 94 | 95 | 82 | 91 | 94 | 96 |  |  |  |  |  |  | % INHIB ([1]; Table 12, HepG2 cells, 150 nM, averages from two experiments): 75%
2 | 281625 (antisense eA*eG*eG*eT*eT*dA*d[5mC]*d[5mC]*dA*dG*d[5mC]*d[5mC]*dA*d[5mC]*dA*eT*eG*e[5mC]*eA*eG) [compound 281625] | 44 | 66 | 83 | 85 | 94 | 62 | 76 | 84 | 94 | 36.2 | 89.5 | 20.9 | 1.2 | 0.1 | 94 | mRNA % control, mouse mRNA [2]: 111.0 % control; mRNA % control, human mRNA [3]: 45.2 % control
3 | 301012 (eG*e[5mC]*e[5mC]*eT*e[5mC]*dA*dG*dT*d[5mC]*dT*dG*d[5mC]*dT*dT*d[5mC]*eG*e[5mC]*eA*e[5mC]*e[5mC]) [compound 301012] | 63 | 79 | 90 | 92 | 95 |  |  |  |  | 21.2 | 50.6 | 21.3 | 1.1 | 0.1 | 87 | mRNA % control, mouse mRNA [2]: 94.6 % control; mRNA % control, human mRNA [3]: 23.7 % control; % Change in apolipoprotein B mRNA expression ([1]; HepG2 cells, 10 nM, 24 hour (Table 41)): −51%; % Change in apolipoprotein B mRNA expression ([1]; HepG2 cells, 50 nM, 24 hour (Table 40)): −44%; % Change in apolipoprotein B mRNA expression ([1]; HepG2 cells, 50 nM, 24 hour (Table 41)): −72%; % Change in apolipoprotein B mRNA expression ([1]; HepG2 cells, 150 nM, 24 hour (Table 40)): −75%; % Change in apolipoprotein B mRNA expression ([1]; HepG2 cells, 150 nM, 24 hour (Table 41)): −92%
4 | 301027 (eG*e[5mC]*eT*e[5mC]*eA*d[5mC]*dT*dG*dT*dA*dT*dG*dG*dT*dT*eT*eT*eA*eT*e[5mC]; antisense) [compound 301027] |  |  |  |  |  | 80 | 90 | 95 | 96 | 221.3 | 455.3 | 21.2 | 1.3 | 0.1 | 89 | 
5 | ISIS 281625: SEQ ID NO: 224, 2′-MOE gapmer targeted to human apolipoprotein B (antisense eA*eG*eG*eT*eT*dA*d[5mC]*d[5mC]*dA*dG*d[5mC]*d[5mC]*dA*d[5mC]*dA*eT*eG*e[5mC]*eA*eG) |  |  |  |  |  |  |  |  |  |  |  |  |  |  |  | levels of the endogenous mouse apolipoprotein B in liver [2]: unaffected; mRNA levels of the human apolipoprotein B in liver [3]: markedly decreased
6 | ISIS 301012: SEQ ID NO: 247, antisense oligonucleotide targeted to human apolipoprotein B (antisense GCCTCAGTCTGCTTCGCACC; chemistry not given here) |  |  |  |  |  |  |  |  |  |  |  |  |  |  |  | levels of the endogenous mouse apolipoprotein B in liver [2]: unaffected; mRNA levels of the human apolipoprotein B in liver [3]: markedly decreased
7 | ISIS 301027: SEQ ID NO: 262, 2′-MOE gapmer targeted to human apolipoprotein B (antisense eG*e[5mC]*eT*e[5mC]*eA*d[5mC]*dT*dG*dT*dA*dT*dG*dG*dT*dT*eT*eT*eA*eT*e[5mC]) |  |  |  |  |  |  |  |  |  |  |  |  |  |  |  | levels of liver enzymes relative to saline treatment [4]: drastically increased
